US12233081B2, “Hygromycin a compounds and methods of treating spirochete diseases” (priority 2018, dated 2025)

Key:
gut microbiome = gut microbiome 16S rRNA sequencing of stool of infected, treated mice; details: subcutaneous 156 mg/kg every 12 hours for 5 days
B. burgdorferi N40 = experiment: C3H mice infected with Borrelia burgdorferi, cell counts in skin tissue; type: in vivo; details: 156 mg/kg IP injection, 5 days of dosing
Protocol: C3H mice (Charles River Laboratories) are used in classical Lyme disease infection model. Mice were rested for more than 1 day after delivery before infected with 10^5 B. burgdorferi N40 cells by subcutaneous injection. Infection was established for 3 weeks. 100 μl of saline, ceftriaxone or hygromycin A was administered by IP injection. Compounds of the invention can also be tested for efficacy as described herein.
Ceftriaxone (USP grade) was purchased from Sigma-Aldrich. Saline was purchased from Baxter Healthcare. Ceftriaxone powder was dissolved into saline to 31.2 mg/ml solution. Hygromycin A stock solution at 200 mg/ml was diluted into saline to make 50 mg/ml (250 mg/kg), 15 mg/ml (75 mg/kg), 14 mg/ml (70 mg/kg), 10 mg/ml (50 mg/kg) and 5 mg/ml (25 mg/kg) solutions.
In the B. burgdorferi mice infection model, skin is the tissue with highest bacterial burden. After sacrificing mice 2 days after 5 days of dosing, we took 100 mg skin tissue from mouse ear, homogenized the tissue and plated on BSK-II semi-agar plates for cell number counts. No colony appearing on the plates is considered as clearance of the infection.

In the case of `CO/N=C(\C(=O)N[C@@H]1C(=O)N2C(C(=O)O)=C(CSc3nc(=O)c(=O)[nH]n3C)CS[C@H]12)c1csc(N)n1` [Ceftriaxone], the “Acholeplasmataceae change in percent relative abundance” value (gut microbiome) is reported as 0.213%, the “Aerococcaceae change in percent relative abundance” value (gut microbiome) is reported as 0.000% and the “Anaerolineaceae change in percent relative abundance” value (gut microbiome) is reported as 0.000%. The “Anaeroplasmataceae change in percent relative abundance” value (gut microbiome) was 0.000%, the “Anaplasmataceae change in percent relative abundance” value (gut microbiome) was 0.001% and the “Aspergillaceae change in percent relative abundance” value (gut microbiome) was 0.000%. The “Asteraceae change in percent relative abundance” value (gut microbiome) was 0.011%, the “Bacillaceae change in percent relative abundance” value (gut microbiome) was 0.055% and the “Bacillales change in percent relative abundance” value (gut microbiome) was −0.174%. For the same molecule, the “Bacteroidaceae change in percent relative abundance” value (gut microbiome) was −26.593%, the “Bifidobacteriaceae change in percent relative abundance” value (gut microbiome) was 0.000% and the “Brucellaceae change in percent relative abundance” value (gut microbiome) was 0.000%. The “Camobacteriaceae change in percent relative abundance” value (gut microbiome) was 0.000%, the “Chitinophagaceae change in percent relative abundance” value (gut microbiome) was 0.000% and the “Christensenellaceae change in percent relative abundance” value (gut microbiome) was 0.000%. The “Clostridiaceae change in percent relative abundance” value (gut microbiome) was −10.423%, the “Clostridiales change in percent relative abundance” value (gut microbiome) was −0.174% and the “Clostridiales family xi. incertae sedis change in percent relative abundance” value (gut microbiome) was −0.050%. The “Clostridiales family xiii. incertae sedis change in percent relative abundance” value (gut microbiome) was −0.015%, the “Coriobacteriaceae change in percent relative abundance” value (gut microbiome) was −0.049% and the “Corynebacteriaceae change in percent relative abundance” value (gut microbiome) was 0.002%. The “Cytophagaceae change in percent relative abundance” value (gut microbiome) was 0.000%, the “Deferribacteraceae change in percent relative abundance” value (gut microbiome) was −1.344% and the “Defluviitaleaceae change in percent relative abundance” value (gut microbiome) was −0.002%. For the same molecule, the “Desulfobacteraceae change in percent relative abundance” value (gut microbiome) was 0.000%, the “Enterobacteriaceae change in percent relative abundance” value (gut microbiome) was −0.487% and the “Enterococcaceae change in percent relative abundance” value (gut microbiome) was 77.7%. The “Erysipelotrichaceae change in percent relative abundance” value (gut microbiome) was −1.012%, the “Eubacteriaceae change in percent relative abundance” value (gut microbiome) was −3.445% and the “Fabaceae change in percent relative abundance” value (gut microbiome) was 0.003%. The “Flavobacteriaceae change in percent relative abundance” value (gut microbiome) was 0.000%, the “Francisellaceae change in percent relative abundance” value (gut microbiome) was 0.000% and the “Fusobacteriaceae change in percent relative abundance” value (gut microbiome) was 0.001%. The “Gammaproteobacteria change in percent relative abundance” value (gut microbiome) was −0.008%, the “Gloeobacteraceae change in percent relative abundance” value (gut microbiome) was −0.018% and the “Gracilibacteraceae change in percent relative abundance” value (gut microbiome) was −0.087%. The “Halomonadaceae change in percent relative abundance” value (gut microbiome) was 0.000%, the “Hylidae change in percent relative abundance” value (gut microbiome) was 0.001% and the “Kopriimonadaceae change in percent relative abundance” value (gut microbiome) was 0.000%. For the same molecule, the “Lachnospiraceae change in percent relative abundance” value (gut microbiome) was −11.193%, the “Lactobacillaceae change in percent relative abundance” value (gut microbiome) was −1.712% and the “Leuconostocaceae change in percent relative abundance” value (gut microbiome) was 0.015%. For the same molecule, the “Methylobacteriaceae change in percent relative abundance” value (gut microbiome) was 0.001%, the “Microbacteriaceae change in percent relative abundance” value (gut microbiome) was 0.001% and the “Mucoraceae change in percent relative abundance” value (gut microbiome) was 0.000%. For the same molecule, the “Nostocaceae change in percent relative abundance” value (gut microbiome) was 0.002%, the “Onagraceae change in percent relative abundance” value (gut microbiome) was 0.000% and the “Oscillatoriales change in percent relative abundance” value (gut microbiome) was 0.090%. The “Oscillospiraceae change in percent relative abundance” value (gut microbiome) was −0.009%, the “Paenibacillaceae change in percent relative abundance” value (gut microbiome) was 0.003% and the “Pasteurellaceae change in percent relative abundance” value (gut microbiome) was 0.001%. For the same molecule, the “Pelobacteraceae change in percent relative abundance” value (gut microbiome) was 0.000%, the “Peptococcaceae change in percent relative abundance” value (gut microbiome) was −0.602% and the “Peptoniphilaceae change in percent relative abundance” value (gut microbiome) was 0.001%. The “Peptostreptococcaceae change in percent relative abundance” value (gut microbiome) was −0.185%, the “Physalacriaceae change in percent relative abundance” value (gut microbiome) was 0.000% and the “Poaceae change in percent relative abundance” value (gut microbiome) was 0.820%. The “Polyangiaceae change in percent relative abundance” value (gut microbiome) was 0.001%, the “Porphyromonadaceae change in percent relative abundance” value (gut microbiome) was −24.493% and the “Prevotellaceae change in percent relative abundance” value (gut microbiome) was −0.417%. The “Pseudomonadaceae change in percent relative abundance” value (gut microbiome) was 0.002%, the “Rhizobiaceae change in percent relative abundance” value (gut microbiome) was 0.001% and the “Rhodobacteraceae change in percent relative abundance” value (gut microbiome) was 0.000%. For the same molecule, the “Rikenellaceae change in percent relative abundance” value (gut microbiome) was −6.750%, the “Ruminococcaceae change in percent relative abundance” value (gut microbiome) was −2.217% and the “Sphingomonadaceae change in percent relative abundance” value (gut microbiome) was 0.000%. For the same molecule, the “Spirochaetaceae change in percent relative abundance” value (gut microbiome) was −0.055%, the “Spiroplasmataceae change in percent relative abundance” value (gut microbiome) was −0.051% and the “Staphylococcaceae change in percent relative abundance” value (gut microbiome) was 0.047%. For the same molecule, the “Streptococcaceae change in percent relative abundance” value (gut microbiome) was 12.672%, the “Thermoanaerobacteraceae change in percent relative abundance” value (gut microbiome) was −0.033% and the “Veillonellaceae change in percent relative abundance” value (gut microbiome) was 0.000%. For the same molecule, the “Verrucomicrobiaceae change in percent relative abundance” value (gut microbiome) was −0.004%, the “Xanthomonadaceae change in percent relative abundance” value (gut microbiome) was 0.001% and the “all other commensal taxa such as Bacteroidaceae and Lactobacillaceae” value (gut microbiome) was “depleted”. The “mice with Enterococcaceae blooms” value (gut microbiome) was 5/5, the “Enterococcaceae change in percent relative abundance” value (gut microbiome; listed as Cef) was 77.719% and the “# of B. burgdorferi cells in 100 mg skin tissue” value (B. burgdorferi N40) was under 1.
